Data on three compounds can be found in patent US6440659B1, “Inhibitors of retroviral protease as inducers of reversible insulin resistance in vitro and in vivo” (Washington University, priority 2000, dated 2002).

One experiment has as its system 3T3-L1 adipocytes. Kind of experiment: [3H]-2-deoxyglucose uptake in 3T3-L1 adipocytes, basal and insulin-stimulated. The format is cell-based. Particulars: for effect on insulin-stimulated glucose uptake relative to indinavir: 50 μM (FIG. 1B); for effect on basal glucose uptake: basal conditions. The method, then:
FIG. 1A. […] Results from three experiments were normalized to the value obtained from insulin-stimulated control cells and are shown as the mean±S.E. (n=6). FIG. 1B. […] Results were normalized to the value obtained from insulin-stimulated control cells and are shown as the mean±S.E. (n=3). 3T3-L1 fibroblasts obtained from the American Type Culture Collection were grown to confluence and 48 h later subjected to the differentiation protocol described previously (Tordjman et al. 1989). Mature 3T3-L1 adipocytes were maintained in DMEM supplemented with 10% fetal bovine serum and used 10 to 15 d post-differentiation. 3T3-L1 adipocytes grown in 3.5 cm dishes were serum-starved for at least 3 hours and then washed three times with Krebs-Ringer phosphate buffer. […] Stock solutions of indinavir and amprenavir were made in water. Ritonavir was dissolved in ethanol.

In experiment [1] the target is T1, Glut4 (Rattus norvegicus, UniProt P19357).
T1 construct: expressed in transfected cells; host or cells: Xenopus laevis oocytes, microinjected with in vitro transcribed mRNA
T1 sequence (P19357 1-509): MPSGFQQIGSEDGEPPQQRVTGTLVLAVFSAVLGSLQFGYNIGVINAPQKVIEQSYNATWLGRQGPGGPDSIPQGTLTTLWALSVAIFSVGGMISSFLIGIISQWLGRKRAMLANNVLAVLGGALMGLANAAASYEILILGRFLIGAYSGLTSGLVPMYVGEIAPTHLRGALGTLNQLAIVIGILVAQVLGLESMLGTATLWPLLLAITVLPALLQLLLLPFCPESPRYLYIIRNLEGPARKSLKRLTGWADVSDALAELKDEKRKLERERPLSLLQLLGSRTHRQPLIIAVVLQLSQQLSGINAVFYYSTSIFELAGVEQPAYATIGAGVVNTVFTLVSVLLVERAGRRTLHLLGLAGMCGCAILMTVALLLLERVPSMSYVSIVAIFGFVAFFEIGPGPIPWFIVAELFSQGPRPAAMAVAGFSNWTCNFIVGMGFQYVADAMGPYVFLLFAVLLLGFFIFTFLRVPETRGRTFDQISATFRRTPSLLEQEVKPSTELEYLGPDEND
Kind of experiment: [3H]-2-deoxyglucose uptake in Xenopus oocytes expressing Glut4. The format is cell-based. Particulars: for inhibition at 50 µM: 50 μM (FIG. 3B). The method, then:
(§1) FIG. 3A. Xenopus oocytes heterologously expressing either Glut1 or Glut4 isoforms were used for [^3H]-2-deoxyglucose uptake measurement in Barth's Saline at 22° C. for 30 min. […] Plotted are the mean uptake from 15-20 oocytes±S.E. [* indicates p<0.01 compared with control (ANOVA with Fischer's PLSD posthoc analysis).]
(§2) FIG. 3B. Glucose uptake in X. laevis oocytes as described above. […] The data are normalized to the uptake from the control oocytes which were not exposed to protease inhibitor. [* indicates p<0.0001 compared with control (ANOVA with Fischer's PLSD posthoc analysis).]
(§3) Xenopus laevis oocytes were prepared and injected as described previously (Keller et al., 1989) with 50 ng of either Glut1 or Glut4 mRNA synthesized in vitro (Megascript RNA synthesis kit, Ambion). After a three day incubation in Barth=s saline containing albumin at 18° C., groups of 15-20 oocytes were washed and [^3H]-2-deoxyglucose (50 μM) uptake measurements were performed in Barth's saline at 22° C. for 30 minutes.

Experiment [2] is described as follows: Euglycemic hyperinsulinemic clamp (peripheral insulin sensitivity) in rats. The format is in vivo, male Wistar rats. Particulars: for reduction in peripheral insulin sensitivity (average GIR) compared with controls: infusion started 30 min before clamp, p<0.05. As for the experimental part: Jugular vein and carotid artery catheters were inserted, at least 4 days prior to each experiment, into 200-400 gm male Wistar rats under methohexital anesthesia. Following an overnight fast, rats were infused with insulin (40 mU/kg/min) and 50% dextrose through the venous catheter. Blood was sampled every 5-10 minutes through the arterial catheter and serum glucose concentrations were determined. The glucose infusion rate (GIR) space was adjusted to maintain glucose levels of 100-110 mg/dl.
Male Wistar rats weighing 200-300 gm were catheterized as described in FIG. 5. […] After 30 minutes, insulin (40 mU/kg/min) and 50% dextrose were added to the intravenous infusion. Blood was sampled through the arterial line every 5 min and the dextrose infusion rate was adjusted to maintain plasma glucose levels between 105-115 mg/dL. GIR represents the mean glucose infusion rate during the final 30 minutes of each 2 hour clamp experiment. Results represent the mean±SEM from 3-5 rats per group. [* indicates […]]
(§4) Male Wistar rats (Charles River Corp) weighing between 250-400 g were used for all experiments described below. Glucose measurements were made using a Glucometer Elite Glucometer (Bayer Corporation, Diagnostics Division, Tarrytown, N.Y.). […] Jugular vein and carotid artery catheters were fabricated using microrenathane tubing (Braintree Scientific) for venous catheters and PE50 tubing (Becton Dickenson) for arterial catheters. Catheters were inserted surgically under methohexital (Jones Pharma Inc, St. Louis, Mo.) anesthesia. Humulin R insulin (Eli Lilly, Indianapolis, Ind.) was used where indicated.
Peripheral insulin sensitivity in rats was assessed by the euglycemic hyperinsulinemic clamp technique. Venous and arterial catheters were surgically inserted into the animals under anesthesia. At least 4 d prior to the initiation of experimental treatments catheters were inserted into both jugular vein and carotid artery locations. Following a 12 hour fast, animals were infused with insulin (40 mU/kg/min) and 50% dextrose in water through the venous catheter. Blood was sampled every 5-10 min through the arterial catheter for serum glucose determinations. The rate of glucose infusion (Glucose Infusion Rate, GIR) was adjusted as necessary to maintain serum glucose at 100-110 mg/dl (FIGS. 5A, 5B, 5C).
Insulin sensitivity was assessed by the average glucose infusion rate required to maintain euglycemia after equilibrium had been established.

Experiment [3] has as its system Glut1. The experiment in a line: Immunoblot of Glut1 content in PM and LDM fractions of 3T3-L1 adipocytes (translocation). Particulars: indinavir-treated cells, 100 μM for 4 h. (In western blotting, separated proteins are transferred to a membrane and probed.)
Experiment [4] in a line: Glucose tolerance after acute indinavir administration in rats. The class given is in vivo, male Wistar rats.
Text: as §4

Experiment [5] concerns insulin receptor (IR), IRS-1 and Akt phosphorylation. The experiment in a line: Immunoblot of insulin signaling (IR, IRS-1, Akt phosphorylation) in 3T3-L1 adipocytes. The format is cell-based. The settings on record: 100 μM for 4 h, 1 μM insulin 20 min.
Procedure: Cells were further incubated for 20 min with or without 1 μM insulin, and subcellular fractions were subsequently isolate. Plasma membrane (PM), low density microsomal (LDM), and cytosolic (CYT) fractions were subjected to immunoblot analysis using anti-phosphotyrosine antibodies.
Whole cell lysates from 3T3-L1 adipocytes from samples treated as described above were subjected to immunoblot analysis using anti-phospo Akt antibodies, which recognize Akt phosphorylated on threonine 308 and serine 473.
The test system of experiment [6] is Glut4. The experiment in a line: Immunoblot of Glut4 content in PM and LDM fractions of 3T3-L1 adipocytes (translocation). Particulars: indinavir-treated cells, 100 μM for 4 h.
Experiment [7] addresses T2, Glut1 (Homo sapiens, UniProt P11166).
T2 construct: expressed in transfected cells; host or cells: Xenopus laevis oocytes, microinjected with in vitro transcribed mRNA
T2 sequence (P11166 1-492): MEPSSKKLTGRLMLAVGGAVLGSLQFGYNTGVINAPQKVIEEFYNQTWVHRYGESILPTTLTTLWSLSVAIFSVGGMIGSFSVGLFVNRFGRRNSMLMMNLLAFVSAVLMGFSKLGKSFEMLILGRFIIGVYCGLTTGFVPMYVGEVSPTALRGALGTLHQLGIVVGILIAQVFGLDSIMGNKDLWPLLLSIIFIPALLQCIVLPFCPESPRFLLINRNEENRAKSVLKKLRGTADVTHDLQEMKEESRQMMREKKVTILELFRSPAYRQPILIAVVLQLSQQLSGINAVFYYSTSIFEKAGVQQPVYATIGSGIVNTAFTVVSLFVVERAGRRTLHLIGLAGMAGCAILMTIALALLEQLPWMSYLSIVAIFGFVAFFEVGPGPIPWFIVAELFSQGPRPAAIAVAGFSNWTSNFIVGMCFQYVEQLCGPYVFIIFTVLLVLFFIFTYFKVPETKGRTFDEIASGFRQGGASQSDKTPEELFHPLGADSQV
Kind of experiment: [3H]-2-deoxyglucose uptake in Xenopus oocytes expressing Glut1. The format is cell-based. Particulars: 22° C., 30 min. As for the experimental part:
as §1, §2, §3

Turning to `CC(C)CN(C[C@@H](O)[C@H](Cc1ccccc1)NC(=O)O[C@H]1CCOC1)S(=O)(=O)c1ccc(N)cc1` [amprenavir], the “effect on insulin-stimulated glucose uptake relative to indinavir” value in the experiment on 3T3-L1 adipocytes is given as “comparable to that of indinavir”. Further, the inhibition (commonly the relative decrease from the control value, in per cent) at 50 µM on Glut4 [1] turned out to be 54%.

For `CC(C)(C)NC(=O)[C@@H]1CN(Cc2cccnc2)CCN1C[C@@H](O)C[C@@H](Cc1ccccc1)C(=O)N[C@H]1c2ccccc2C[C@H]1O` [indinavir], the “reduction in peripheral insulin sensitivity (average GIR) compared with controls” value came to 15% in experiment [2] (0.3 mg/kg/min) and 40% in experiment [2] (0.5 mg/kg/min). In addition, the “time to restoration of insulin sensitivity to baseline after stopping infusion” value in experiment [2] (after stopping indinavir infusion) was not above 4 h. Besides, the “decrease in GIR required to maintain euglycemia” value in experiment [2] (i.v. infusion 0.3 mg/kg/min) is on record as 20%; in experiment [2] (i.v. infusion 0.5 mg/kg/min, within 90 minutes after start) it was 50%. In addition, the “increase with insulin of Glut1 content in plasma membrane (PM) fraction” value in the experiment on Glut1 [3] is 63%. In experiment [4] (10 mg/kg i.p. together with dextrose 2 g/kg i.p., control 195±15, p<0.05), the “blood glucose concentration at t=30 min” value amounted to 241 ± 11 mg/dL. For the same compound, the “peak plasma glucose concentration” value in experiment [4] (15 mg/kg i.v. 5 min prior to glucose 2 gm/kg i.p., control 311±30) came to 407 ± 25 mg/dL. Also, in experiment [5], the “IR autophosphorylation and tyrosine phosphorylation of IRS-1” value is recorded as “occurred normally”. Further, the “effect on insulin-stimulated phosphorylation of Akt on threonine 308 or serine 473” value in experiment [5] was “no effect”. In addition, the inhibition at 10 µM with 3T3-L1 adipocytes (Mus musculus, 3T3-L1, 10 μM, added 6 min prior to assay, 1 μM insulin, p<0.0001, read-out: inhibition of insulin-stimulated glucose uptake) was determined as 26%. The inhibition at 100 µM in the experiment with 3T3-L1 adipocytes (Mus musculus, 3T3-L1, 100 μM, added 6 min prior to assay, 1 μM insulin for 20 min, read-out: inhibition of insulin-stimulated glucose uptake) stood at 63%; against Glut4 [1] (100 μM (maximum dose tested)), 45%. For the same compound, the “effect on basal glucose uptake” value in the experiment with 3T3-L1 adipocytes (20 μM) was “modest increase”; with 3T3-L1 adipocytes (10-100 μM), “largely unaffected”. Besides, the “extent of inhibition of transport activity when added before or after 20 min of insulin stimulation” value in the experiment on 3T3-L1 adipocytes (data not shown) is “did not change”. Moreover, in the experiment with 3T3-L1 adipocytes (data not shown), the “time to restoration of normal insulin-responsive glucose uptake after removal of drug” value is not above 30 min. Besides, the “increase with insulin of Glut4 content in plasma membrane (PM) fraction” value with Glut4 [6] turned out to be 38%. On Glut1 [7], the “effect on Glut1 activity in Xenopus oocytes” value is given as “no effect”.

Turning to `CC(C)c1nc(CN(C)C(=O)N[C@H](C(=O)N[C@@H](Cc2ccccc2)C[C@H](O)[C@H](Cc2ccccc2)NC(=O)OCc2cncs2)C(C)C)cs1` [ritonavir], the “effect on insulin-stimulated glucose uptake relative to indinavir” value in the experiment on 3T3-L1 adipocytes was “comparable to that of indinavir”. Moreover, the inhibition at 50 µM against Glut4 [1] is 42%.
